Results on nine compounds are retold here after patent publication US12371454B2, “Cyclic peptide compound having Kras inhibitory action” (priority 2019, dated 2025).

Each structure is given as a SMILES string. Starred links: 1 amine or outer side, 2 acyl side, 3 side chain; linkers in the order of their positions; H or OH if unused. Positions of bridges follow the written chain, without caps; N, C: chain ends. Non-standard residues stand in square brackets, D forms with d. Residues, ends and D or L forms follow the SMILES beside them. *: point of attachment. hPhe(3-Cl-4-CF3) = N[C@@H](CCc1ccc(C(F)(F)F)c(Cl)c1)C(=O)O; hPhe(3-F,4-CF3) = N[C@@H](CCc1ccc(C(F)(F)F)c(F)c1)C(=O)O; hPhe(4-CF3) = N[C@@H](CCc1ccc(C(F)(F)F)cc1)C(=O)O; NMeAla(4-thiazolyl) = CN[C@@H](Cc1cscn1)C(=O)O; X5 = CC(C)(C)NC(=O)COC[C@H](CC(=O)[*:1])N[*:2]; NMePhe(4-Me) = CN[C@@H](Cc1ccc(C)cc1)C(=O)O; NMeMet(O2) = CN[C@@H](CCS(C)(=O)=O)C(=O)O; NMedβ3hAla = C[C@H](CC(=O)[*:2])N(C)[*:1]; NMeGly(cPent) = CN[C@H](C(=O)O)C1CCCC1; Pro(4,4-F2) = O=C(O)[C@@H]1CC(F)(F)CN1; NMeCha = CN[C@@H](CC1CCCCC1)C(=O)O; NMeChg = CN[C@H](C(=O)O)C1CCCCC1; NMeI = CC[C@H](C)[C@H](NC)C(=O)O; NMeD = CN[C@@H](CC(=O)O)C(=O)O; NMeL = CN[C@@H](CC(C)C)C(=O)O; NMeV = CN[C@H](C(=O)O)C(C)C; d(β3hA) = C[C@@H](N)CC(=O)O; Pip = O=C(O)[C@@H]1CCCCN1; NMeA = CN[C@@H](C)C(=O)O; NMeAib = CNC(C)(C)C(=O)O; Piperidide = C1CCN(*)CC1; Pyrrolidide = C1CCN(*)C1; dNMeA = CN[C@H](C)C(=O)O; Ac5c = NC1(C(=O)O)CCCC1; Aze = O=C(O)[C@@H]1CCN1; Ac4c = NC1(C(=O)O)CCC1; Aib = CC(C)(N)C(=O)O; Sar = CNCC(=O)O

The target in this experiment is T1, Kras and SOS1 (biotin-tagged human Kras loaded with GDP, His-tagged human SOS1) (Homo sapiens, UniProt P01116, G12D).
T1 construct: made in house; host or cells: E. coli (stated for Kras only)
T1 sequence (P01116 1-188 isoform P01116-2 G12D): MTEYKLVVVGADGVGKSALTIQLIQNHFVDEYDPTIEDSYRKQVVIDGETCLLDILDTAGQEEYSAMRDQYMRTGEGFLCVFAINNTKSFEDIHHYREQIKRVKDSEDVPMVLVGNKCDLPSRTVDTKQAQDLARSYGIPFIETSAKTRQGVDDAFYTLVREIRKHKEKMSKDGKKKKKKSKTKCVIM
Description: Protein-protein interaction inhibition between Kras and SOS1 (KrasGl2D-SOS PPI) using AlphaScreen. Particulars: AlphaScreen; biotin-tagged human Kras loaded with GDP, His-tagged human SOS1; read-out: KRAS G12D-SOS PPI IC50. The class given is binding. The method in brief: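 Binding between SOS1 and Kras is detected as bead-proximity luminescence: illuminate Ni-conjugated donors (680 nm), collect 520-620 nm emission from streptavidin-conjugated acceptors; Kras carries biotin and GDP loaded after purification, SOS1 carries a His tag.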
As to `CC[C@H](C)[C@@H]1NC(=O)[C@H](C)N(C)C(=O)C[C@@H](C)N(C)C(=O)[C@H](CC(C)C)NC(=O)C(C)(C)N(C)C(=O)[C@H](CC(C)C)NC(=O)[C@H](CCc2ccc(C(F)(F)F)c(Cl)c2)NC(=O)CN(C)C(=O)[C@H](CC2CCCCC2)N(C)C(=O)[C@@H]2CCN2C(=O)[C@H](C)N(C)C1=O` [Compound 1391] (cyclo([Aze][NMeCha][Sar][hPhe(3-Cl-4-CF3)]L[NMeAib]L[NMedβ3hAla][NMeA]I[NMeA])), the IC50 is 65 nM. To `CC[C@H](C)[C@@H]1NC(=O)[C@H](CC(C)C)N(C)C(=O)C[C@@H](COCC(=O)NC(C)(C)C)NC(=O)[C@H]([C@@H](C)CC)N(C)C(=O)C2(CCCC2)NC(=O)[C@@H]2CCCN2C(=O)[C@H](CCc2ccc(C(F)(F)F)c(Cl)c2)NC(=O)CN(C)C(=O)[C@H](Cc2ccc(C)cc2)N(C)C(=O)[C@@H]2CCN2C(=O)[C@H](C)N(C)C1=O` [Compound 1960] ([NMeL]I[NMeA][Aze][NMePhe(4-Me)][Sar][hPhe(3-Cl-4-CF3)]P[Ac5c][NMeI]; linker N-C via X5) belongs 56 nM; to `CC[C@H](C)[C@@H]1NC(=O)[C@H](CC(C)C)N(C)C(=O)C[C@@H](C(=O)N(C)C)N(C)C(=O)[C@H]([C@@H](C)CC)N(C)C(=O)[C@H](C(C)C)NC(=O)[C@H](Cc2cscn2)N(C)C(=O)[C@H](CCc2ccc(C(F)(F)F)c(Cl)c2)NC(=O)CN(C)C(=O)[C@H](Cc2ccc(C)cc2)N(C)C(=O)[C@@H]2CCN2C(=O)[C@H](C)N(C)C1=O` [Compound 982] ([NMeL]I[NMeA][Aze][NMePhe(4-Me)][Sar][hPhe(3-Cl-4-CF3)][NMeAla(4-thiazolyl)]V[NMeI][NMeD]-NMe2; lactam N-11), 48 nM.

In the case of `CC[C@H](C)[C@@H]1NC(=O)[C@H](CC(C)C)N(C)C(=O)C[C@@H](C(=O)N2CCCC2)NC(=O)[C@H](CC(C)C)N(C)C(=O)C2(CCCC2)NC(=O)[C@@H]2CCCN2C(=O)[C@H](CCc2ccc(C(F)(F)F)c(F)c2)NC(=O)CN(C)C(=O)[C@H](CC2CCCCC2)N(C)C(=O)CN(C)C(=O)CN(C)C1=O` [Compound 1489] ([NMeL]I[Sar][Sar][NMeCha][Sar][hPhe(3-F,4-CF3)]P[Ac5c][NMeL]D-Pyrrolidide; lactam N-11), the IC50 was determined as 18 nM. The same measure for `CC[C@H](C)[C@@H]1NC(=O)[C@H](C)N(C)C(=O)C[C@@H](C)NC(=O)[C@H](C(C)C)N(C)C(=O)C2(CCCC2)NC(=O)[C@@H]2CCCN2C(=O)[C@H](CCc2ccc(C(F)(F)F)c(Cl)c2)NC(=O)[C@@H](C)N(C)C(=O)[C@H](CC2CCCCC2)N(C)C(=O)[C@@H]2CCN2C(=O)[C@H](C)N(C)C1=O` [Compound 831] (cyclo([Ac5c][NMeV][d(β3hA)][NMeA]I[NMeA][Aze][NMeCha][dNMeA][hPhe(3-Cl-4-CF3)]P)): 180 nM. With `CC[C@H](C)[C@@H]1NC(=O)[C@H](CC(C)C)N(C)C(=O)C[C@@H](C(=O)N2CCCCC2)N(C)C(=O)[C@H](C2CCCCC2)N(C)C(=O)C2(CCCC2)NC(=O)[C@@H]2CCCN2C(=O)[C@H](CCc2ccc(C(F)(F)F)c(Cl)c2)NC(=O)CN(C)C(=O)[C@H](CCS(C)(=O)=O)N(C)C(=O)CN(C)C(=O)CN(C)C1=O` [Compound 1094] ([NMeL]I[Sar][Sar][NMeMet(O2)][Sar][hPhe(3-Cl-4-CF3)]P[Ac5c][NMeChg][NMeD]-Piperidide; lactam N-11), the half-inhibitory concentration (IC50) was 2.2 nM. The same measure for `CC[C@H](C)[C@@H]1NC(=O)[C@@H]2CCCCN2C(=O)C[C@@H](C)NC(=O)[C@H](CC(C)C)N(C)C(=O)C(C)(C)NC(=O)[C@H](CC(C)C)N(C)C(=O)[C@H](CCc2ccc(C(F)(F)F)cc2)NC(=O)CN(C)C(=O)[C@H](CC2CCCCC2)N(C)C(=O)CN(C)C(=O)CN(C)C1=O` [Compound 31] (cyclo([Aib][NMeL][d(β3hA)][Pip]I[Sar][Sar][NMeCha][Sar][hPhe(4-CF3)][NMeL])): 380 nM. To `CC[C@H](C)[C@@H]1NC(=O)[C@H](CC(C)C)N(C)C(=O)C[C@@H](C)N(C)C(=O)[C@H](C2CCCC2)N(C)C(=O)C2(CCC2)NC(=O)[C@@H]2CC(F)(F)CN2C(=O)[C@H](CCc2ccc(C(F)(F)F)c(Cl)c2)NC(=O)CN(C)C(=O)[C@H](Cc2ccc(C)cc2)N(C)C(=O)CN(C)C(=O)CN(C)C1=O` [Compound 359] (cyclo([Ac4c][NMeGly(cPent)][NMedβ3hAla][NMeL]I[Sar][Sar][NMePhe(4-Me)][Sar][hPhe(3-Cl-4-CF3)][Pro(4,4-F2)])) belongs 3.2 nM; to `CC[C@H](C)[C@@H]1NC(=O)[C@H](CC(C)C)N(C)C(=O)C[C@@H](C(=O)N(C)C)N(C)C(=O)[C@H]([C@@H](C)CC)N(C)C(=O)C2(CCCC2)NC(=O)[C@@H]2CCCN2C(=O)[C@H](CCc2ccc(C(F)(F)F)c(Cl)c2)NC(=O)CN(C)C(=O)[C@H](CC2CCCCC2)N(C)C(=O)CN(C)C(=O)CN(C)C1=O` [Compound 1865] ([NMeL]I[Sar][Sar][NMeCha][Sar][hPhe(3-Cl-4-CF3)]P[Ac5c][NMeI][NMeD]-NMe2; lactam N-11), 0.43 nM.
